Reference: PMC8205077, “Phenyl-substituted aminomethylene-bisphosphonates inhibit human P5C reductase and show antiproliferative activity against proline-hyperproducing tumour cells” (Journal of Enzyme Inhibition and Medicinal Chemistry, 2021)
Where a name gives a salt, the structure may show the parent alone. Read-outs that look alike come from different tables or passages of the source.

Columns and labels:
[1] = system: human myelogenous erythroleukemic K562 cells; assay: Antiproliferative assay, K562 cells; format: cell-based; conditions: for IC50: Homo sapiens, K562
Method: (§1) Human myelogenous erythroleukemic K562 cells[36] were cultured in a humidified atmosphere of 5% CO2/air either in complete RPMI 1640 medium (Lonza, Verviers, Belgium) or in a modified medium without L-proline (United States Biological, Massachusetts, USA), both supplemented with 10% foetal bovine serum (FBS; Biowest, Nuaillé, France), 100 U mL^−1 penicillin and 100 μg mL^−1 streptomycin. Human epithelial breast cancer MDA-MB-231 cells[37] were cultured under the same conditions in DMEM medium (Lonza, Verviers, Belgium) supplemented with 10% FBS, 100 U mL^−1 penicillin, 100 μg mL^−1 streptomycin and 2 mM L-glutamine.
(§2) K562 cells in the late exponential phase of growth were seeded in 1 mL medium without FBS in 24-well plates to an initial density of about 20,000 cells mL^−1. Treatments with Br2PAMBPA in the range 1–200 µM were carried out 5 h after seeding. Cell growth was monitored at increasing time after the treatment by determining cell density on 50-μL aliquots with a Z1 Coulter Counter (Coulter Electronics), considering a dimensional range between 8 and 20 μm. MDA-MB-231 cells in the late exponential phase of growth (90% confluence) were washed with sterile PBS, incubated with sterile trypsin-EDTA solution (Sigma-Aldrich, Saint Louis, USA) for 2 min, resuspended in fresh DMEM medium and centrifuged at 1000 g at room temperature for 5 min. Pellets were resuspended in sterile PBS and spun again to remove any residue of trypsin. Cells were finally resuspended in DMEM medium without FBS, and seeded in 24-well plates in a final volume of 1 mL to an initial density of about 20,000 cells mL^−1. Treatments with Br2PAMBPA in the range 1–200 µM were carried out 5 h after seeding, and 2% FBS was added to each well 24 h thereafter. Cell growth was monitored at increasing time after the treatment by destructive harvest. For both cell lines each treatment was carried out at least in triplication, and each experiment was performed at least twice.

[2] = system: human epithelial breast cancer MDA-MB-231 cells; assay: Antiproliferative assay, MDA-MB-231 cells; format: cell-based
Method: as §1
as §2, with “Cells were finally resuspended in DMEM medium without FBS, and seeded in 24-well plates in a final volume of 1 mL to an initial density of about 20,000 cells mL^−1.” left out

K562 cells [3] = assay: Measurement of intracellular free proline and P5C levels, K562 cells; format: cell-based, human
Method: For proline and P5C quantification, treatments were carried out in T-25 flasks containing 10 mL medium. Cells were harvested by centrifugation at 1000 g for 5 min at RT. Each pellet was resuspended in 1.4 mL of sterile PBS and spun again to remove the medium. Washed pellets were transferred on ice, resuspended in a minimal volume of a 3% (w/v) solution of 5-sulfosalicylic acid and subjected to various freeze-thaw cycles to induce rupture of the phospholipid membrane. Cell debris were sedimented by centrifugation at 12,000 g for 5 min at RT, and the supernatants were analysed by the acid ninhydrin method of Williams and Frank, as described.

[4] = target: T1, human P5C reductase 1 (PYCR1) (Homo sapiens, UniProt P32322); assay: P5C reductase assay (P5C-dependent oxidation of NAD(P)H); format: biochemical; conditions: for effect on the activity of human P5C reductase: at concentrations as low as 1 μM
T1 construct: His-tag; made in house; host or cells: E. coli BL21(DE3) pLysS
T1 sequence (P32322 1-319): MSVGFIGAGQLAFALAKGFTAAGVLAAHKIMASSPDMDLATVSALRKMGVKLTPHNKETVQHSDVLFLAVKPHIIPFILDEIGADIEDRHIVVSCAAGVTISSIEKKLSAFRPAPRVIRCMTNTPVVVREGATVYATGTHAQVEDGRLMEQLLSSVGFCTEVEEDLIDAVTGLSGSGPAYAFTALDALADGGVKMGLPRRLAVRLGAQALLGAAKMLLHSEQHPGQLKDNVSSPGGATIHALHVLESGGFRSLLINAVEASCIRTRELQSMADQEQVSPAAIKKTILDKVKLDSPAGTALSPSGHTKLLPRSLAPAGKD
Method: The gene coding for P5C reductase 1 (PYCR1, gene ID 5831), cloned into the expression vector pET28a^+[34], was kindly provided by prof. Zihe Rao (Tsinghua University, China). For heterologous expression, E. coli BL21(DE3) pLysS cells (Invitrogen) were made competent by the calcium chloride method, transformed with the recombinant vector and selected on kanamycin-containing LB plates. About 6 h after inducing gene expression in liquid LB medium at 24 °C by the addition of 1 mM isopropyl-D-thiogalactopyranoside, cells were harvested by centrifugation and stored at −20 °C. Aliquots (about 1 g cell material) were lysed in an ice-cold mortar with 2 g g^−1 alumina and resuspended in 20 mL g^−1 extraction buffer (50 mM Na phosphate buffer, pH 7.5, containing 200 mM NaCl and 20 mM imidazole). The His-tagged protein was purified from clarified extracts by affinity chromatography onto a His-Trap^TM FF column (1 mL, GE Healthcare 17–5319-01). Stepwise elution was achieved by increasing concentrations of imidazole in extraction buffer. Discontinuous SDS–polyacrylamide gel electrophoresis was performed at 8 mA with a 5% stacking and a 12% separating gel, using a Minigel system (BioRad). Samples were mixed with the same volume of 125 mM Tris–HCl buffer (pH 6.8) containing 4% (w/v) SDS, 20% (v/v) glycerol and 10% (v/v) β-mercaptoethanol, and denatured 5 min at 100 °C. Proteins were visualised by soaking gels in Quick Coomassie Stain (CliniSciences) overnight.
Enzyme activity was measured at 30 °C as the P5C-dependent oxidation of NAD(P)H. Assays were performed in 96-microwell plates in a final volume of 0.2 mL. The assay mixture contained 4 mM DL-P5C and 0.5 mM of either NADH or NADPH in 50 mM Tris-HCl buffer, pH 7.5. Parallel blanks were performed in which P5C had been omitted. The decrease of absorbance was measured for 5 min at 0.5-min intervals using a Ledetect plate reader (Labexim, Lengau, Austria) equipped with a LED plugin at 340 nm. Residual NAD(P)H content was estimated on the basis of calibration curves obtained under the same conditions. Activity was calculated by linear regression of data using Prism 6 for Windows, version 6.03 (GraphPad Software, San Diego, CA); one unit of activity was defined as the amount of enzyme that catalyses the P5C-dependent oxidation of 1 nmol NAD(P)H s^−1 (nkat). Proteins were measured by the Coomassie Brilliant Blue method, using bovine serum albumin as the standard. To evaluate substrate affinity, invariable substrates were fixed at the same levels as in the standard assay. For variable substrates, L-P5C ranged from 400 to 2000 μM, while the concentration of NADH and NADPH ranged from 125 to 500 μM. To evaluate the inhibition brought about by pargylines and aminomethylene-bisphosphonates, freshly prepared 10 mM stock solution in water and 100 mM Tris-HCl buffer pH 7.5, respectively, were diluted with water and added to the reaction mixture before enzyme addition. Parallel control samples were carried out in the absence of any inhibitor. Activity was calculated as described above. Mean activity value in controls was set as 100%, and activity in treated samples was expressed as percent of such value. Percent values were plotted against the logarithm of inhibitor concentration, and data were interpolated using the equation Y = 100/(1 + 10^∧((LogIC50-X)*HillSlope)). Assays were performed in triplicate (technical replications). Each experiment was repeated at least twice with different enzyme preparations (biological replicates). KM and Vmax values, as well as the concentrations causing 50% inhibition (IC50), KI values and their confidence intervals were estimated by non-linear regression analysis using Prism 6.

K562 cells [5] = assay: Cell viability assay (Trypan Blue exclusion), K562 cells; format: cell-based, human; conditions: modified RPMI medium not containing proline, 96 h after the inoculum
Method: Cell viability was assessed by the Trypan Blue exclusion test[38]. Stained cells were counted in a Bürker chamber. Viable and nonviable cells were recorded separately, and the results of three independent counts were pooled. Data were expressed as percent of alive cells.

human P5C reductase = conditions: cited from earlier work
breast cancer cell = conditions: at 10 μM; cited from earlier work
glutamine synthetase = conditions: human enzyme; cited from earlier work
[6] = treated serum-free, 2% FBS added 24 h thereafter
[7] = IC50, NADH as the electron donor
[8] = IC50, NADPH as the electron donor
[9] = IC50 values, abstract, cofactor not specified

O=P(O)(O)C(Nc1cc(Br)cc(Br)c1)P(=O)(O)O [Br2PAMBPA, 3,5-dibromophenylaminomethylene-bisphosphonic acid]
IC50 ([1]; modified RPMI medium not containing proline, read-out: concentration giving 50%-inhibition of growth): ~20 µM
IC50 ([1]; unmodified RPMI medium containing 20 mg L^−1 (174 μM) Pro, read-out: concentration giving 50% inhibition of growth): ~7 µM
concentrations progressively impairing growth ([1]; abstract): 10^−6 to 10^−4 M
concentration range in which growth was inhibited ([1]; modified RPMI medium not containing proline): 2 to 200 µM
effect on cell proliferation in standard medium ([2]; DMEM with FBS, concentrations exceeding 50 μM, preliminary, data not shown): only mild effects
concentrations progressively impairing growth ([2]; abstract): 10^−6 to 10^−4 M
concentration from which cell growth rate and maximal cell density were progressively reduced [2, 6]: ≥ 5 µM
concentration from which cell proliferation was completely abolished [2, 6]: ≥ 50 µM
levels of P5C (K562 cells [3]; all cases, detection limit printed as > 1 nmol [10^6 cells]^−1): no detectable
free proline concentration (K562 cells [3]; control and treated K562 cells, with or without exogenous proline): 4–5 nmol (10^6 cells)^−1
intracellular levels of free proline vs controls (K562 cells [3]; modified RPMI medium not containing proline, 96 h after the inoculum): not significantly different than in controls
reduction of free proline content with respect to viable cells (K562 cells [3]; unmodified RPMI medium with 20 mg L^−1 Pro, at 50 µM): less than 50%
free proline content with respect to viable cells (K562 cells [3]; unmodified RPMI medium with 20 mg L^−1 Pro, up to 50 µM): no reduction was evident
type of inhibition with NADH as the variable substrate [4]: mixed-type
IC50 [4, 7]: 0.48 ± 0.03 µM
IC50 [4, 8]: 0.39 ± 0.03 µM
IC50 [4, 9]: < 1 µM
Ki ([4]; NADH as variable substrate (Fig. 4D)): 0.66 ± 0.21 µM
Ki ([4]; NADPH as variable substrate (Fig. 4C)): 0.48 ± 0.08 µM
Ki ([4]; P5C as variable substrate, NADH as electron donor (Fig. 4B)): 0.12 ± 0.01 µM
Ki ([4]; P5C as variable substrate, NADPH as electron donor (Fig. 4A)): 0.32 ± 0.02 µM
mechanism of inhibition against both P5C and NADPH ([4]; abstract): competitive type
effect on the activity of human P5C reductase [4]: almost completely suppressed
type of inhibition against P5C ([4]; with NADPH or NADH as the electron donor): competitive type
concentrations at which cell viability was significantly reduced (K562 cells [5]): exceeding 50 µM

C#CCN(C)Cc1ccc(Br)cc1 [4-bromopargyline, reference compound]
IC50 (human P5C reductase): 9 µM
reduction of breast cancer cell proliferation (breast cancer cell): 30–40%
IC50 [4, 7]: 234 ± 28 µM
IC50 [4, 8]: 9 µM
IC50 ([4]; NADPH as the electron donor, read-out: IC50): 8.7 ± 0.8 µM

O=P(O)(O)C(Nc1cc(Cl)cc(Cl)c1)P(=O)(O)O [3,5-Cl2PAMBPA]
IC50 (glutamine synthetase): 780 ± 30 µM
IC50 [4, 7]: 0.78 ± 0.04 µM
IC50 [4, 8]: 0.74 ± 0.06 µM
IC50 [4, 9]: < 1 µM
mechanism of inhibition against both P5C and NADPH ([4]; abstract): competitive type
effect on the activity of human P5C reductase [4]: almost completely suppressed

C#CCN(C)Cc1ccccc1 [Pargyline, N-methyl-N-(2-propynyl)benzylamine hydrochloride, reference compound]
IC50 (human P5C reductase; listed as pargylin): 200 µM
IC50 (human P5C reductase; listed as pargyline): 198 µM
IC50 [4, 7]: > 10000 µM
IC50 [4, 8]: 81 µM
